Results: US20220071233A1, “IN VITRO INSECT MUSCLE AS A NUTRITION SOURCE” (Trustees of Tufts College, priority 2018, published 2022)
“Also recorded” adds a separate entry of the source.

What was measured:
DrAMPCs [1] = assay: CyQuant proliferation assay after hormone treatment; type: cell-based, Drosophila melanogaster
Protocol: Drosophila melanogaster adult muscle progenitor-like cells (DrAMPCs) were acquired from Kerafast (Boston, Mass.) (#EF4006). The cell line was originally immortalized by the Persimmon Research Group at Harvard University, and was derived from primary embryo cultures in which Gal4 drives Ras^V12 and GFP expression. DrAMPCs were cultured in insect growth media composed of Schneider's Insect Medium from Sigma-Aldrich (St. Louis, Mo.) (#S0146) supplemented with 10% heat inactivated fetal bovine serum from ThermoFisher (Waltham, Mass.) (#16140) and 1% penicillin/streptomycin (ThermoFisher, #15140122). For serum-free growth media experiments, media consisted of Ex-Cell 405 Serum-Free Medium (Sigma-Aldrich, #14405C) and 1% penicillin/streptomycin. For static culture, DrAMPCs were cultured in either plasma-treated flasks (ThermoFisher, #156499) or ultra-low attachment flasks (Corning, N.Y.) (#CLS3814) and incubated at 19° C. in a temperature-controlled incubator from VWR (Radnor, Pa.) (#89511-416). For suspension culture, DrAMPCs were cultured in shaker flasks (ThermoFisher, #4115-0250) on an orbital shaker set at 40 rpm at room temperature. When indicated, dextran sulfate (Sigma-Aldrich, #67578) was supplemented to serum-free media by dissolution and sterile filtration with 0.2 μm bottle top filters (ThermoFisher, #595-3320). For hormone treatment and differentiation experiments, DrAMPCs were cultured in insect growth media or serum-free media supplemented with methoprene (Sigma-Aldrich, #33375) and/or 20-hydroxyecdysone (Sigma-Aldrich, #H5142) which were dissolved in DMSO (Sigma-Aldrich, #D8418). DrAMPCs were seeded at 75,000 or 300,000 cells/cm^2 in 2D culture and 1,000,000 cells/sponge in 3D culture. […]
Cell adhesion to tissue culture plastic and chitosan films was quantified via a MTS Assay from Promega (Madison, Wis.) (#G3582) by measuring absorbance after 2.5-hour incubation with the MTS reagent. Cell proliferation and viability were measured by fluorescence, Live/Dead kit (ThermoFisher, #L3224) stained image analysis or CyQuant proliferation assays (ThermoFisher, #C7026). For fluorescence measurements, GFP-expressing DrAMPCs were imaged on a fluorescence microscope over the course of a week using the automated multi-point capture feature. Fluorescence was quantified on Fiji software and normalized to the values determined at the first time-point. For Live/Dead stained image analysis, cells were stained following the kit protocols and imaged on a fluorescence microscope. The images were analyzed with Fiji to quantify the viability and total cell population over time. […] Microplate measurements were performed on a SpectraMax M2 reader from Molecular Devices (San Jose, Calif.). Cell populations were determined from a standard curve.

DrAMPCs [2] = assay: Cell elongation and differentiation after hormone treatment (image analysis, immunostaining); type: cell-based, Drosophila melanogaster
Protocol: Drosophila melanogaster adult muscle progenitor-like cells (DrAMPCs) were acquired from Kerafast (Boston, Mass.) (#EF4006). The cell line was originally immortalized by the Persimmon Research Group at Harvard University, and was derived from primary embryo cultures in which Gal4 drives Ras^V12 and GFP expression. DrAMPCs were cultured in insect growth media composed of Schneider's Insect Medium from Sigma-Aldrich (St. Louis, Mo.) (#S0146) supplemented with 10% heat inactivated fetal bovine serum from ThermoFisher (Waltham, Mass.) (#16140) and 1% penicillin/streptomycin (ThermoFisher, #15140122). For serum-free growth media experiments, media consisted of Ex-Cell 405 Serum-Free Medium (Sigma-Aldrich, #14405C) and 1% penicillin/streptomycin. For static culture, DrAMPCs were cultured in either plasma-treated flasks (ThermoFisher, #156499) or ultra-low attachment flasks (Corning, N.Y.) (#CLS3814) and incubated at 19° C. in a temperature-controlled incubator from VWR (Radnor, Pa.) (#89511-416). For suspension culture, DrAMPCs were cultured in shaker flasks (ThermoFisher, #4115-0250) on an orbital shaker set at 40 rpm at room temperature. When indicated, dextran sulfate (Sigma-Aldrich, #67578) was supplemented to serum-free media by dissolution and sterile filtration with 0.2 μm bottle top filters (ThermoFisher, #595-3320). For hormone treatment and differentiation experiments, DrAMPCs were cultured in insect growth media or serum-free media supplemented with methoprene (Sigma-Aldrich, #33375) and/or 20-hydroxyecdysone (Sigma-Aldrich, #H5142) which were dissolved in DMSO (Sigma-Aldrich, #D8418). DrAMPCs were seeded at 75,000 or 300,000 cells/cm^2 in 2D culture and 1,000,000 cells/sponge in 3D culture. For mammalian controls, C2C12 cells from ATTC (Manassas, Va.) (#CRL-1772) were cultured in growth media composed of DMEM+Glutamax (ThermoFisher, #10566) supplemented with 10% heat inactivated fetal bovine serum and 1% penicillin/streptomycin. C2C12s were seeded at 10,000 cells/cm^2.
Cell viability was determined by a Live/Dead staining kit (ThermoFisher, #L3224). At time of assay, media was gently aspirated from the cell surface and cells were rinsed with phosphate buffered saline (PBS) (ThermoFisher, #14040133). Cells were stained with 2 μM calcein AM and 4 μM EthD-1 solution for 30 minutes at room temperature in the dark and imaged with a fluorescence microscope. For immunocytochemical staining, media was gently aspirated from cells and the cell surface was rinsed with PBS. Cells were fixed with 4% paraformaldehyde from Fisher Scientific (Hampton, N.H.) (#J61899AK) for 10 minutes and rinsed with PBS. Cells were then permeabilized with 0.5% Triton X-100 and rinsed with blocking buffer consisting of phosphate buffered saline, 5% fetal bovine serum and 0.05% sodium azide. Cells were incubated in blocking buffer for 15 minutes before addition of primary antibody, then incubated at 4° C. overnight. Cells were rinsed and incubated with fresh blocking buffer for 15 minutes before addition of secondary antibody, then incubated in the dark on ice for 1 hour. Again, cells were rinsed and incubated with fresh blocking buffer for 15 minutes before counterstaining and mounting with DAPI mounting medium from Abcam (Cambridge, UK) (#ab104139). Detailed antibody information is available in Table 5. Fluorescence imaging was performed on a Keyence microscope (Osaka, Japan) (#BZ-X700). Confocal imaging was performed on a TCS SP8 microscope from Leica Microsystems (Wetzlar, Germany).

DrAMPCs [3] = assay: Adhesion and differentiation on chitosan sponge scaffolds; type: cell-based, Drosophila melanogaster
Protocol: Mushroom chitosan of 100 kDa molecular weight from Chinova Bioworks (New Brunswick, Canada) was dissolved in 2% acetic acid in distilled water for 12 hours at room temperature on a stir plate. The chitosan solution was centrifuged at 16,880×g for 3 hours to remove undissolved particles and diluted in distilled water to the desired concentrations (1%, 2% and 4%). Concentrations were verified by drying small volumes at 60° C. for 2 hours and calculating dry weight/wet weight. To prepare films, the solution was cast on plastic and allowed to dry overnight. To prepare sponges, the solution was poured into PDMS molds with an aluminum sheet separating one side of the mold from a separate chamber. Liquid nitrogen was poured into the chamber opposite the chitosan solution and continually replenished until the entire solution had frozen across the temperature gradient. Samples were then lyophilized for 48 hours. Prior to sterilization and seeding, films and sponges were submerged in 1M sodium carbonate for 1 hour at room temperature and subsequently rinsed three times in distilled water for 20 minutes and soaked in distilled water overnight. For hydrated mechanical analysis, sectioned sponges were soaked in PBS prior to testing.
Sponges used for seeding were cylinders 6 mm in diameter and 1.5 mm thick. […]

[4] = system: Manduca sexta embryonic precursor cell (Ms-EPCs); assay: Ms-EPC culture and differentiation; type: cell-based
DrAMPCs [5] = assay: Surface coatings: myosin heavy chain expression and cell attachment (image fluorescence quantification); type: cell-based, Drosophila melanogaster; conditions: cultures on coated surface
DrAMPCs [6] = assay: Adhesion and growth on mushroom chitosan films (MTS assay, fluorescence microscopy); type: cell-based, Drosophila melanogaster; conditions: 0.1% gelatin solution coating
Protocol: Cell adhesion to tissue culture plastic and chitosan films was quantified via a MTS Assay from Promega (Madison, Wis.) (#G3582) by measuring absorbance after 2.5-hour incubation with the MTS reagent. Cell proliferation and viability were measured by fluorescence, Live/Dead kit (ThermoFisher, #L3224) stained image analysis or CyQuant proliferation assays (ThermoFisher, #C7026). For fluorescence measurements, GFP-expressing DrAMPCs were imaged on a fluorescence microscope over the course of a week using the automated multi-point capture feature. Fluorescence was quantified on Fiji software and normalized to the values determined at the first time-point. For Live/Dead stained image analysis, cells were stained following the kit protocols and imaged on a fluorescence microscope. The images were analyzed with Fiji to quantify the viability and total cell population over time. For CyQuant proliferation assays, cells were plated in 96-well plates for each time-point. At each time-point, media was blotted from the plates and plates were stored at −80° C. After all time-points were collected, plates were thawed to room temperature and stained with CyQuant working solution for 5 minutes. Microplate measurements were performed on a SpectraMax M2 reader from Molecular Devices (San Jose, Calif.). Cell populations were determined from a standard curve. […]

DrAMPCs [7] = assay: Agitated suspension culture in shaker flasks (aggregation); type: cell-based, Drosophila melanogaster; conditions: 100 μg/mL dextran sulfate in EC405, shaker flasks
Protocol: It was noted that when static culture flasks became over-confluent, the cells continued to grow in three-dimensional aggregates or in suspension. […] The cells were then transitioned from static suspension culture to agitated suspension culture with the use of shaker flasks incubated at room temperature. In agitated suspension, the cells formed aggregates (FIG. 1G). […] After expansion in suspension culture and removal of dextran sulfate, the cells transitioned back to adherent monolayers and retained a myoblast-like morphology.
Drosophila melanogaster adult muscle progenitor-like cells (DrAMPCs) were acquired from Kerafast (Boston, Mass.) (#EF4006). The cell line was originally immortalized by the Persimmon Research Group at Harvard University, and was derived from primary embryo cultures in which Gal4 drives Ras^V12 and GFP expression. DrAMPCs were cultured in insect growth media composed of Schneider's Insect Medium from Sigma-Aldrich (St. Louis, Mo.) (#S0146) supplemented with 10% heat inactivated fetal bovine serum from ThermoFisher (Waltham, Mass.) (#16140) and 1% penicillin/streptomycin (ThermoFisher, #15140122). For serum-free growth media experiments, media consisted of Ex-Cell 405 Serum-Free Medium (Sigma-Aldrich, #14405C) and 1% penicillin/streptomycin. […]

DrAMPCs [8] = assay: Potassium induced contraction; type: cell-based, Drosophila melanogaster
Protocol: Cells were differentiated for 5 days before the experiment. High K+ concentration media was produced by dissolving KCl in growth media at the indicated concentration. Cells were imaged on a Phase Contrast microscope before growth media was aspirated and replaced with 600 mM K+ media. Cells were imaged over a duration of 15 minutes.

[9] = average adult; cited from earlier work
[10] = both serum-supplemented and serum-free cultures

CC(C)(O)CC[C@@H](O)[C@](C)(O)[C@H]1CC[C@@]2(O)C3=CC(=O)[C@@H]4C[C@@H](O)[C@@H](O)C[C@]4(C)[C@H]3CC[C@]12C [20-hydroxyecdysone]
growth rates versus control groups (DrAMPCs [1]; 0, 500 or 1000 ng/mL 20-HE): did not significantly differ from control groups | concentration able to trigger cell elongation (DrAMPCs [2]; as low as): 40 ng/mL | differentiation (DrAMPCs [2]; [10]): triggered differentiation | differentiation of EC405 adapted cells (DrAMPCs [2]; small fraction of cells, 1 μg/mL 20-HE for 5 days): differentiate and form long, multinucleated myotubes that express myosin heavy chain | generation of myosin heavy chain-expressing cells (DrAMPCs [3]; on plastic and chitosan scaffolds): myosin heavy chain-expressing cells could be generated (albeit at low efficiency) | fraction of cells on chitosan scaffolds differentiated (DrAMPCs [3]; treated with 20-hydroxyecdysone): < 1% | differentiation of primary Ms-EPC cells ([4]; differentiated with 20-hydroxyecdysone): multinucleated, striated and express myosin heavy chain

Concanavalin A
cell attachment (DrAMPCs [5]): do not increase cell attachment | expression of myosin heavy chain in differentiated DrAMPCs (DrAMPCs [5]): may increase

laminin
cell attachment (DrAMPCs [5]): do not increase cell attachment | expression of myosin heavy chain in differentiated DrAMPCs (DrAMPCs [5]): may increase

gelatin
cell adhesion and growth on gelatin-coated chitosan films (DrAMPCs [6]): did not increase cell adhesion to chitosan films; also recorded: grow in aggregates and were detached from the center of the well during the PBS rinse | cell adhesion to gelatin coated tissue culture plastic (DrAMPCs [6]): improve cell adhesion

dextran sulfate
cell aggregation in agitated suspension (DrAMPCs [7]): sufficient to reduce aggregation and promote a single cell suspension | cell aggregation in agitated suspension (DrAMPCs [7]; listed as Dextran sulfate): sufficient to reduce cell aggregation

[Cl-].[K+] [K^+, KCl]
cell viability after potassium treatment (DrAMPCs [8]): 95% | cell contraction (DrAMPCs [8]; 300 mM K+): did not contract | cell contraction (DrAMPCs [8]; 600 mM K+): did contract | cell fractional shortening, myoblasts (elongated cells) (DrAMPCs [8]; 600 mM K+, image analysis, n=12): 31.6%±14.8% | cell fractional shortening, spherical proliferative precursor cells (DrAMPCs [8]; 600 mM K+, image analysis, n=14): 1.6%±16.2%

COC(C)(C)CCC[C@H](C)C/C=C/C(C)=C/C(=O)OC(C)C (racemic) [methoprene]
comparison of treatment levels on proliferation (DrAMPCs [1]; 500 ng/mL vs 1,000 ng/mL): the 500 ng/mL treatment level had a larger effect than the 1,000 ng/mL treatment | proliferation versus control groups (DrAMPCs [1]; 500 or 1,000 ng/mL, day 1 and 5): higher proliferation than control groups | proliferation (DrAMPCs [1]; [10]): increased proliferation | average cell length less than control cells (DrAMPCs [2]; 500 ng/mL): 8 μm | cell elongation (preliminary sign of differentiation) (DrAMPCs [2]; JH treatment): inhibited cell elongation | recommended exposure [9]: 0.3750 mg/day

poly-lysine
cell morphology of Ms-EPCs ([4]; poly-lysine coated plastic): more cell elongation, perhaps differentiation
